Data published in the supplement of paper PMC8741786.
Values after ≈ are worked out from the molar mass of the structure shown.

System: Neisseria subflava/flavescens/perflava
Assay: minimum inhibitory concentration (ETEST)
Description: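 Oropharyngeal Neisseria isolates from MSM and employees in Belgium were identified to species by MALDI-TOF MS. MICs of azithromycin, ceftriaxone and ciprofloxacin were determined by ETEST on GC agar after 24 h at 36.5 °C and 5-7% CO2, in mg/L. Values beyond the strip range are reported as >256 (azithromycin) or <0.016 (ceftriaxone); isolates that did not grow are NA.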

O=C(O)c1cn(C2CC2)c2cc(N3CCNCC3)c(F)cc2c1=O [ciprofloxacin]
Settings | minimum inhibitory concentration [mg/L]
isolate id (sample isolate): 19041762_1, population: MSM, antibiotic use in previous 6 months: Yes | 1.5 (≈ 4.53 µM)
isolate id (sample isolate): 19041762_1.1, population: MSM, antibiotic use in previous 6 months: Yes | 3 (≈ 9.05 µM)
isolate id (sample isolate): 19041780_1, population: MSM, antibiotic use in previous 6 months: Yes | 0.25 (≈ 0.754 µM)
isolate id (sample isolate): 19042150_1, population: MSM, antibiotic use in previous 6 months: Yes | 0.25 (≈ 0.754 µM)
isolate id (sample isolate): 19042150_3, population: MSM, antibiotic use in previous 6 months: Yes | 0.032 (≈ 0.0966 µM)
isolate id (sample isolate): 19042756_1, population: MSM, antibiotic use in previous 6 months: Yes | 1 (≈ 3.02 µM)
isolate id (sample isolate): 19042756_2, population: MSM, antibiotic use in previous 6 months: Yes | 0.75 (≈ 2.26 µM)
isolate id (sample isolate): 19043201_1.1, population: MSM, antibiotic use in previous 6 months: No | 0.25 (≈ 0.754 µM)
isolate id (sample isolate): 19043201_2.1, population: MSM, antibiotic use in previous 6 months: No | 0.38 (≈ 1.15 µM)
isolate id (sample isolate): 19043201_3, population: MSM, antibiotic use in previous 6 months: No | 0.25 (≈ 0.754 µM)
isolate id (sample isolate): 19043274_3, population: MSM, antibiotic use in previous 6 months: Yes | 0.25 (≈ 0.754 µM)
isolate id (sample isolate): 19050474_1, population: MSM, antibiotic use in previous 6 months: No | 0.25 (≈ 0.754 µM)
isolate id (sample isolate): 19050514_1, population: MSM, antibiotic use in previous 6 months: Yes | 0.5 (≈ 1.51 µM)
isolate id (sample isolate): 19050949_1, population: MSM, antibiotic use in previous 6 months: No | 0.016 (≈ 0.0483 µM)
isolate id (sample isolate): 19050949_2, population: MSM, antibiotic use in previous 6 months: No | 0.38 (≈ 1.15 µM)
isolate id (sample isolate): 19050949_2.1, population: MSM, antibiotic use in previous 6 months: No | 0.38 (≈ 1.15 µM)
isolate id (sample isolate): 19051904_2, population: MSM, antibiotic use in previous 6 months: Yes | 0.38 (≈ 1.15 µM)
isolate id (sample isolate): 19051904_3, population: MSM, antibiotic use in previous 6 months: Yes | 0.38 (≈ 1.15 µM)
isolate id (sample isolate): 19052394_1, population: MSM, antibiotic use in previous 6 months: Yes | 0.19 (≈ 0.573 µM)
isolate id (sample isolate): 19052394_1.1, population: MSM, antibiotic use in previous 6 months: Yes | 0.19 (≈ 0.573 µM)
isolate id (sample isolate): 19060089_1, population: MSM, antibiotic use in previous 6 months: Yes | 0.38 (≈ 1.15 µM)
isolate id (sample isolate): 19062994_1, population: MSM, antibiotic use in previous 6 months: Yes | 0.016 (≈ 0.0483 µM)
isolate id (sample isolate): Co000761_2, population: general population, antibiotic use in previous 6 months: No | 0.012 (≈ 0.0362 µM)
isolate id (sample isolate): Co000761_3, population: general population, antibiotic use in previous 6 months: No | 0.75 (≈ 2.26 µM)
isolate id (sample isolate): Co000761_5, population: general population, antibiotic use in previous 6 months: No | 0.38 (≈ 1.15 µM)
isolate id (sample isolate): Co000761_6, population: general population, antibiotic use in previous 6 months: No | 0.008 (≈ 0.0241 µM)
isolate id (sample isolate): Co000762_3, population: general population, antibiotic use in previous 6 months: No | 0.016 (≈ 0.0483 µM)
isolate id (sample isolate): Co000762_4, population: general population, antibiotic use in previous 6 months: No | 0.016 (≈ 0.0483 µM)
isolate id (sample isolate): Co000763_2, population: general population, antibiotic use in previous 6 months: No | 0.008 (≈ 0.0241 µM)
isolate id (sample isolate): Co000764_1, population: general population, antibiotic use in previous 6 months: No | 0.032 (≈ 0.0966 µM)
isolate id (sample isolate): Co000764_2, population: general population, antibiotic use in previous 6 months: No | 0.047 (≈ 0.142 µM)
isolate id (sample isolate): Co000765_2, population: general population, antibiotic use in previous 6 months: No | 0.023 (≈ 0.0694 µM)
isolate id (sample isolate): Co000765_3, population: general population, antibiotic use in previous 6 months: No | 0.016 (≈ 0.0483 µM)
isolate id (sample isolate): Co000765_4, population: general population, antibiotic use in previous 6 months: No | 0.012 (≈ 0.0362 µM)
isolate id (sample isolate): Co000766_1, population: general population, antibiotic use in previous 6 months: No | 0.047 (≈ 0.142 µM)
isolate id (sample isolate): Co000766_3, population: general population, antibiotic use in previous 6 months: No | 0.008 (≈ 0.0241 µM)
isolate id (sample isolate): Co000767_1, population: general population, antibiotic use in previous 6 months: No | 0.008 (≈ 0.0241 µM)
isolate id (sample isolate): Co000767_2, population: general population, antibiotic use in previous 6 months: No | 1 (≈ 3.02 µM)
isolate id (sample isolate): Co000767_4, population: general population, antibiotic use in previous 6 months: No | 0.016 (≈ 0.0483 µM)
isolate id (sample isolate): Co000767_5, population: general population, antibiotic use in previous 6 months: No | 0.38 (≈ 1.15 µM)
isolate id (sample isolate): Co000767_6, population: general population, antibiotic use in previous 6 months: No | 0.006 (≈ 0.0181 µM)
isolate id (sample isolate): Co000767_7, population: general population, antibiotic use in previous 6 months: No | 0.38 (≈ 1.15 µM)
isolate id (sample isolate): Co000768_1, population: general population, antibiotic use in previous 6 months: No | 0.006 (≈ 0.0181 µM)
isolate id (sample isolate): Co000768_2, population: general population, antibiotic use in previous 6 months: No | 0.008 (≈ 0.0241 µM)
isolate id (sample isolate): Co000769_1, population: general population, antibiotic use in previous 6 months: No | 0.5 (≈ 1.51 µM)
isolate id (sample isolate): Co000769_2, population: general population, antibiotic use in previous 6 months: No | 0.008 (≈ 0.0241 µM)
isolate id (sample isolate): Co000769_4, population: general population, antibiotic use in previous 6 months: No | 0.5 (≈ 1.51 µM)
isolate id (sample isolate): Co000770_2, population: general population, antibiotic use in previous 6 months: No | 0.25 (≈ 0.754 µM)
isolate id (sample isolate): Co000770_4, population: general population, antibiotic use in previous 6 months: No | 0.5 (≈ 1.51 µM)
isolate id (sample isolate): Co000770_6, population: general population, antibiotic use in previous 6 months: No | 0.047 (≈ 0.142 µM)
isolate id (sample isolate): Co000771_2, population: general population, antibiotic use in previous 6 months: No | 1 (≈ 3.02 µM)
isolate id (sample isolate): Co000771_3, population: general population, antibiotic use in previous 6 months: No | 0.006 (≈ 0.0181 µM)
isolate id (sample isolate): Co000771_5, population: general population, antibiotic use in previous 6 months: No | 0.016 (≈ 0.0483 µM)
isolate id (sample isolate): Co000772_1, population: general population, antibiotic use in previous 6 months: No | 0.023 (≈ 0.0694 µM)
isolate id (sample isolate): Co000772_2, population: general population, antibiotic use in previous 6 months: No | 0.016 (≈ 0.0483 µM)
isolate id (sample isolate): Co000772_4, population: general population, antibiotic use in previous 6 months: No | 0.016 (≈ 0.0483 µM)
isolate id (sample isolate): Co000772_5, population: general population, antibiotic use in previous 6 months: No | 0.012 (≈ 0.0362 µM)
isolate id (sample isolate): Co000772_6, population: general population, antibiotic use in previous 6 months: No | 0.008 (≈ 0.0241 µM)
